In ChEMBL document CHEMBL3217657, “Rapid assembly of potent type II dehydroquinase inhibitors viaClick chemistry” (Medchemcomm, 2010):

Experiments:
[1] = target: T1, 3-dehydroquinate dehydratase (Streptomyces coelicolor (strain ATCC BAA-471 / A3(2) / M145), UniProt P15474); assay: (§1) Competitive reversible inhibition of Strepotomyces coelicolor type 2 dehydroquinase expressed in Escherichia coli BL21 (DE3) cells assessed as enone-carboxylate chromophore of 3-dehydroshikimate formation using 3-dehydroquinate as substrate preincubated with enzyme for 3 mins prior to substrate addition by UV spectrophotometric assay
T1 sequence (P15474 whole entry): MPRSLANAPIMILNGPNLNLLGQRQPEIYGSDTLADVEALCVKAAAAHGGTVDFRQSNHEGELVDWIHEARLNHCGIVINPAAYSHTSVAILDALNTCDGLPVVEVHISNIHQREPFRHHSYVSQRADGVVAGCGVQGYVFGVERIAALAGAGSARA

[2] = target: T2, 3-dehydroquinate dehydratase (Helicobacter pylori (strain ATCC 700392 / 26695) (Campylobacterpylori), UniProt Q48255); assay: as §1, with “Helicobacter pylori” for “Strepotomyces coelicolor”
T2 sequence (Q48255 whole entry): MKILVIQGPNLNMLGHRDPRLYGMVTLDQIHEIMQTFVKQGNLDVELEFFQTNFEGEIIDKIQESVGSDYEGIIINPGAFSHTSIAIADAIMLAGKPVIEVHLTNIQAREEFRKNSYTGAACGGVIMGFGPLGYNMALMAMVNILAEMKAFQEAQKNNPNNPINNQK

[3] = target: T3, 3-dehydroquinate dehydratase (Mycobacterium tuberculosis, UniProt P9WPX7); assay: as §1, with “Mycobacterium tuberculosis” for “Strepotomyces coelicolor”
T3 sequence (P9WPX7 whole entry): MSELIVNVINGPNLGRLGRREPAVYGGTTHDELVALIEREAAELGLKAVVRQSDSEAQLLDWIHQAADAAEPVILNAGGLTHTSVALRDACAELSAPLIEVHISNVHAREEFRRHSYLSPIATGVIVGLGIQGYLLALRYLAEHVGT

**Q.** Which results are given for `O=C(O)[C@]1(O)C=C(c2cn(-c3ccccc3)nn2)[C@@H](O)[C@H](O)C1`?
**A.** Ki [1]: 5.7 nM; Ki [2]: 225 nM; Ki [3]: 39 nM

**Q.** How did the Ki [1] turn out when `O=C(O)[C@]1(O)C=C(c2cn(-c3ccc(F)cc3)nn2)[C@@H](O)[C@H](O)C1` was run?
**A.** 29 nM

**Q.** What about the Ki [2] of the same compound?
**A.** 561 nM

**Q.** What about the Ki [3] of the same compound?
**A.** 154 nM

**Q.** For `O=C(O)[C@]1(O)C=C(c2cn(-c3cccc([N+](=O)[O-])c3)nn2)[C@@H](O)[C@H](O)C1`, which Ki [1] is on record?
**A.** 78 nM

**Q.** And the Ki [2]?
**A.** 538 nM

**Q.** What about the Ki [3] of the same compound?
**A.** 230 nM

**Q.** For `O=C(O)c1cccc(-n2cc(C3=C[C@@](O)(C(=O)O)C[C@@H](O)[C@@H]3O)nn2)c1`, which Ki [1] is on record?
**A.** 1720 nM

**Q.** What about the Ki [2] of the same compound?
**A.** 5780 nM

**Q.** And the Ki [3]?
**A.** 3130 nM

**Q.** `O=C(O)[C@]1(O)C=C(c2cn(-c3ccccc3O)nn2)[C@@H](O)[C@H](O)C1` was tested. Which Ki [1] did it give?
**A.** 48 nM

**Q.** And the Ki [2]?
**A.** 157 nM

**Q.** And the Ki [3]?
**A.** 330 nM

**Q.** How did the Ki [1] turn out when `O=C(O)[C@]1(O)C=C(c2cn(-c3cccnc3)nn2)[C@@H](O)[C@H](O)C1` was run?
**A.** 5.7 nM

**Q.** And the Ki [2]?
**A.** 375 nM

**Q.** What about the Ki [3] of the same compound?
**A.** 136 nM

**Q.** What does the source list for `O=C(O)[C@]1(O)C=C(c2cn(Cc3ccco3)nn2)[C@@H](O)[C@H](O)C1`?
**A.** Ki [1]: 217 nM; Ki [2]: 2200 nM; Ki [3]: 2120 nM

**Q.** Which results are given for `O=C(O)[C@]1(O)C=C(c2cn(Cc3cccs3)nn2)[C@@H](O)[C@H](O)C1`?
**A.** Ki [1]: 73 nM; Ki [2]: 925 nM; Ki [3]: 1580 nM
